Experimental data taken from patent US20150152122A1, “TYROSINASE INHIBITORS” (Avon Products, Inc., priority 2013, published 2015).

Experiments:
[1] = tested on: MELANODERM (MEL-300-B) human skin model; experiment: 3D skin equivalent tissue pigmentation assay (MELANODERM); type: cell-based; settings: topical 10 μl, Day 11
Experimental: The effect of the tyrosinase inhibitors on melanin levels was investigated using a MELANODERM™ (MEL-300-B, MatTek Corp., Ashland, Mass.) human skin model. MELANODERM™ is a viable reconstituted three-dimensional human skin equivalent containing melanocytes derived from African-American donors. Tissues were maintained in culture medium EPI-100-NMM-113 at 37° C. as recommended by the manufacturer.
The compounds were dissolved in either 69% propylene glycol+30% EtOH+1% DMSO or 70% propylene glycol+30% EtOH desired concentration (w/v). 10 μl of the solution was applied topically to the MELANODERMTM tissue while culture medium was added on days 1, 2, 4, 7, and 9. Control tissues were treated with the 10 μl of corresponding vehicle only. On Day 11, tissues were collected and homogenized in a buffer containing 1% SDS, 50 mM EDTA, and 10 mM Tris, pH 6.8. To each homogenate, protease K (5 mg/ml) was added and incubated overnight at 45° C. Additional protease K was added and incubated for 4 hours at 45° C., followed by the addition of 0.5M sodium carbonate and 30% H2O2 and incubation at 80° C. for 30 minutes. The samples were cooled down to room temperature, and extracted with chloroform/methanol (2:1). After centrifugation at 10,000 g for 10 minutes, absorbance of the top phase was measured at 450 nm. Percent change in melanin levels in treated tissue was calculated relative to control. The average percent change in melanin relative to control of the three tissues is reported in the Table 5 in accordance with the scale: 0: <7% decrease in pigmentation level; +: between 8-14% decrease; ++: between 15-20% decrease; +++: between 21-30% decrease; ++++: >31% decrease; C=cytotoxic

[2] = tested on: B16 mouse melanoma cells; experiment: Inhibition of melanin production in B16 melanoma cell assay; type: cell-based; settings: 4 days, normalized to cell viability (MTT), alpha MSH 2 ng/ml
Experimental: The effects of various test compounds on melanin levels were determined by performing assays using B16 melanoma cells. These cells are known to constitutively produce melanin and are a commonly utilized and accepted model system for monitoring the inhibition of melanin synthesis. The B16 mouse melanoma cells were seeded (ATCC, cat. #: CRL-6475) into 96-well tissue culture-treated plates (BD Falcon) and treated with test actives or controls in phenol red free DMEM (Mediatech; cat. #: 17-205-CV) with 2 nanogram/ml of alpha MSH (Fluka; cat #: 63605). The cells were examined for their ability to modulate pigment formation. […] Tests were performed in 6 replicates each. Following the treatment period (4 days), the level of pigment produced or melanin synthesized was quantified by reading the absorbance at 540 nm using a standard microplate reader (Tecan Group Ltd.).
After quantifying the amount of melanin, cell viability was determined using the MTT conversion method. The MTT conversion method measures the reduction of the MTT dye from a yellow colored, water-soluble, tetrazolium salt to a bluish-purple colored insoluble formazan precipitate by NAD(P)H-dependent microsomal dehydrogenase enzymes, which only function in viable cells. The intensity of the blue color is indicative of cell viability. After quantifying the amount of melanin pigment produced, the cells were exposed to MTT dye solution (1 mg/ml) for two to three hours. Formazan material was solubilized with reagent alcohol (95% ethanol: 5% isopropanol) and shaken on an orbital shaker for 15-30 minutes. MTT dye uptake and conversion by viable cells were determined by measuring the extracted formazan at 570 nm using a microplate reader. Total pigmentation was calculated, normalized to cell viability values and expressed as the average percent change in melanin activity relative to control of the six experiments performed.

[3] = tested on: human skin explants; experiment: Melanin production in human skin explants; type: cell-based; settings: human skin explant
Experimental: The effects of test compound AV7909 on melanin levels in human skin explants were determined relative to a DMSO control and Kojic Acid benchmark.

[4] = tested on: Mushroom tyrosinase; experiment: Mushroom tyrosinase assay; type: biochemical; settings: percent change vs DMSO vehicle, L-Tyrosine substrate, 25° C., 30 min
Experimental: Mushroom tyrosinase and L-Tyrosine were obtained from Sigma-Aldrich, Inc. (St. Louis, Mo.). The enzyme activity was measured in buffer containing 100 mM phosphate buffer pH 6.8, 5% absolute ethanol, 2 micrograms/milliiliter mushroom tyrosinase, and 0.2 mg/ml L-Tyrosine. The reaction (conversion of L-Tyrosine to DOPAchrome) was conducted in triplicates at 25° C. for 30 min, and absorbance was then measured at 492 nm. Kojic Acid was used as a positive control inhibitor in these assays. Percent change in tyrosinase activity relative to vehicle control was calculated.

[5] = tested on: Human Epidermal Melanocytes, neonatal, darkly pigmented donor (HEMn-DP); experiment: Human Primary Melanocyte Pigmentation Assay (HEMn-DP); type: cell-based; settings: 5 days, normalized to cell viability
Experimental: The effects of various test compounds on melanin productions were determined by performing assays using Human Epidermal Melanocytes, neonatal, darkly pigmented donor (HEMn-DP). The HEMn-DP cells were seeded (Invitrogen; cat. #: C-202-5C) into 6-well tissue culture-treated plates (BD Falcon) and treated with test actives or controls in Medium 254 (Invitrogen; cat. #: M-254-500) supplemented with 1% HMSG (Invitrogen; cat. #: S-002-5) and 1% PS. The cells were examined for their ability to modulate pigment formation. […] Tests were performed in triplicates each. Following the treatment period (5 days), supernatants were aspirated. The melanin was extracted with 0.5 ml of 2N NaOH for 30 minutes at 80° C. The level of melanin synthesized within the cells was quantified by reading the absorbance at 405 nm using a standard microplate reader (Tecan Group Ltd.).
The cell viability was determined using the MTT conversion method. The MTT conversion method measures the reduction of the MTT dye from a yellow colored, water-soluble, tetrazolium salt to a bluish-purple colored insoluble formazan precipitate by NAD(P)H-dependent microsomal dehydrogenase enzymes, which only function in viable cells. […] MTT dye uptake and conversion by viable cells were determined by measuring the extracted formazan at 570 nm using a microplate reader. Total pigmentation was calculated and normalized to cell viability values. […]

Cc1cc(C)n(-c2ccc(=S)[nH]n2)n1 [AV7909]
3D Tissue Pigmentation Assay (change in melanin compared to vehicle control) ([1]; concentration 0.1% (w/v)): ++ (between 15-20% decrease)
3D Tissue Pigmentation Assay (change in melanin compared to vehicle control) ([1]; concentration 0.25% (w/v)): +++ (between 21-30% decrease)
3D Tissue Pigmentation Assay (change in melanin compared to vehicle control) ([1]; concentration 0.5% (w/v)): ++++ (>31% decrease)
B16 Assay Percent Change Melanin Compared to Vehicle ([2]; concentration 0.0001%): −17%
B16 Assay Percent Change Melanin Compared to Vehicle ([2]; concentration 0.0010%): −79%
Pigment Production (percent change in melanin compared to DMSO vehicle control) ([3]; concentration 0.1%): −17%
Pigment Production (percent change in melanin compared to DMSO vehicle control) ([3]; concentration 0.5%): −28%
Tyrosinase Activity relative to Vehicle Control ([4]; concentration 0.0010%): −82%
Tyrosinase Activity relative to Vehicle Control ([4]; concentration 0.0100%): −70%

Sc1nnc2sc3ccccc3n12 [AV0442]
B16 Assay Percent Change Melanin Compared to Vehicle ([2]; concentration 0.0010%): −19%
Tyrosinase Activity relative to Vehicle Control ([4]; concentration 0.0010%): −73%
Tyrosinase Activity relative to Vehicle Control ([4]; concentration 0.0100%): −49%

Cn1c2ccccc2n2c(=S)[nH]nc12 [AV7533]
3D Tissue Pigmentation Assay (change in melanin compared to vehicle control) ([1]; concentration 0.05% (w/v)): + (between 8-14% decrease)
3D Tissue Pigmentation Assay (change in melanin compared to vehicle control) ([1]; concentration 0.1% (w/v)): + (between 8-14% decrease)
3D Tissue Pigmentation Assay (change in melanin compared to vehicle control) ([1]; concentration 0.25% (w/v)): ++ (between 15-20% decrease)
HUMAN PRIMARY MELANOCYTE PIGMENTATION ASSAY (change in melanin compared to DMSO vehicle control) ([5]; concentration 0.0001%): 0 (<10% decrease in pigmentation level)
HUMAN PRIMARY MELANOCYTE PIGMENTATION ASSAY (change in melanin compared to DMSO vehicle control) ([5]; concentration 0.001%): ++ (between 31-50% decrease)
B16 Assay Percent Change Melanin Compared to Vehicle ([2]; concentration 0.0001%): −31%
B16 Assay Percent Change Melanin Compared to Vehicle ([2]; concentration 0.0010%): −63%
Tyrosinase Activity relative to Vehicle Control ([4]; concentration 0.0010%): −74%
Tyrosinase Activity relative to Vehicle Control ([4]; concentration 0.0100%): −70%

S=c1[nH]nc(-c2ccc3c(c2)OCO3)o1 [AV5828]
B16 Assay Percent Change Melanin Compared to Vehicle ([2]; concentration 0.0001%): −13%
B16 Assay Percent Change Melanin Compared to Vehicle ([2]; concentration 0.0010%): −30%
Tyrosinase Activity relative to Vehicle Control ([4]; concentration 0.0010%): −48%
Tyrosinase Activity relative to Vehicle Control ([4]; concentration 0.0100%): −77%

S=c1nc(-c2cccs2)cn[nH]1 [AV4926]
B16 Assay Percent Change Melanin Compared to Vehicle ([2]; concentration 0.0010%): −49%
Tyrosinase Activity relative to Vehicle Control ([4]; concentration 0.0010%): −75%
Tyrosinase Activity relative to Vehicle Control ([4]; concentration 0.0100%): −53%

CC(C)c1nc(=S)[nH]n1-c1ccccc1 [AV1973]
B16 Assay Percent Change Melanin Compared to Vehicle ([2]; concentration 0.0001%): −17%
B16 Assay Percent Change Melanin Compared to Vehicle ([2]; concentration 0.0010%): −60%
Tyrosinase Activity relative to Vehicle Control ([4]; concentration 0.0100%): −81%

O=c1cc(CO)occ1O [Kojic Acid, Kojic acid (5-hydroxy-4-pyran-4-one-2-methyl), reference compound]
Pigment Production (percent change in melanin compared to DMSO vehicle control) ([3]; concentration 0.1%): −23%
